Consider eight compounds from ChEMBL document CHEMBL1145045 (J Med Chem, 2003).

Bounds are passed on as bounds.

As usually defined, the EC50 is the concentration needed to bring the measured effect to its halfway point. A low value points to an effect from little substance.

For the assay, the target named is Major prion protein. The experiment in a line: Half maximal inhibition of Prion protein PrPsc formation was assayed in ScN2a cells. It counts as cell-based.

The compound `CC(=O)c1ccc2c(c1)N(CCCN(C)C)c1ccccc1S2` [ACEPROMAZINE] showed an EC50 of 5 µM.

`NC(=O)N1c2ccccc2C=Cc2ccccc21` [CARBAMAZEPINE] gave a concentration for a half-maximal effect (EC50) above 10 µM.

Regarding `CCN(CC)CCCC(C)Nc1ccnc2cc(Cl)ccc12` (stereo not drawn) [CHLOROQUINE], the EC50 was 4 µM.

For `CN(C)CCCN1c2ccccc2Sc2ccc(Cl)cc21` [CHLORPROMAZINE], a half-maximal effect (EC50) was put at 2 µM. Compared with the last compound, the EC50 is about 2-fold lower.

`O=C(CCCN1CCC(O)(c2ccc(Cl)cc2)CC1)c1ccc(F)cc1` [HALOPERIDOL] returned an EC50 above 10 µM.

Consider `c1ccc2nc3ccccc3nc2c1` [PHENAZINE], for which the EC50 was above 10 µM.

With `CN(C)CCCN1c2ccccc2Sc2ccccc21` [PROMAZINE], the EC50 was 5 µM. This lies in the single-digit micromolar range.

`CC(CN1c2ccccc2Sc2ccccc21)N(C)C` (stereo not drawn) [PROMETHAZINE] had an EC50 of 8 µM.
